Results taken from article PMC8213385, “Development of a Fluorescent Assay to Search New Drugs Using Stable tdTomato-Leishmania, and the Selection of Galangin as a Candidate With Anti-Leishmanial Activity” (Frontiers in Cellular and Infection Microbiology, 2021).

Tests used:
[1] = system: intracellular amastigotes of L. (L.) amazonensis; test: Microscopic assay, counting intracellular amastigotes in Raw 264.7 macrophages at the optic microscope; assay type: cell-based, Leishmania (Leishmania) amazonensis
Procedure: (§1) Furthermore, the efficacy of MI was also determined against intracellular amastigotes of L. amaz/tc3 and L. amaz/wt. Raw 264.7 macrophages were plated in 96-well black plate (5 x 10^4 cells/well) and in eight well Lab-Tek tissue culture slides (6.6 x 10^4 cells/ml) (Nunc, USA). The cells were infected with promastigotes in stationary phase of L. amaz/tc3 and L. amaz/wt (1:20 ratio) at 33°C, 5% CO2. After incubation, the infected macrophages were washed to remove non-internalized parasites with PBS plus P-S. New RPMI-1640 medium with different concentrations of MI (20 to 0.62 µg/ml) was added to each well and incubated at 33°C, 5% CO2 during 48 h. The anti-leishmanial activity of MI was determined by measuring the fluorescence of intracellular amastigotes of L. amaz/tc3 in a plate reader (Tecan, Männedorf, Switzerland). The viability was calculated as mentioned above, and the IC50 was also estimated. Simultaneously, the leishmanicidal activity of MI against L. amaz/wt was determined by the microscopy test. In this case, the infected macrophages were stained with Diff Quik (Biopur S.R.L., Rosario, Argentina) and the number of intracellular amastigotes was determined in 200-500 macrophages in treated and control cultures per slide under the immersion lens microscope (100x) (Leitz Wetzlar, Germany). The infection index (II) and the % infectivity (I) were calculated by the following formulas: II = IM × A, where IM= infected macrophages (%), A= number of amastigotes per infected macrophages; and I(%)=IIT/IIc×100, where IIT= infection index in treated cultures, IIC= infection index in control cultures ([Ayres et al., 2008]). The IC50 of MI was calculated.
Then, to estimate the IC50 values of GAL, FI and MO; and to confirm the IC50 of RU, the activity was evaluated quantifying the intracellular amastigotes at the optic microscope. We followed the same methodology described for MI (microscopic assay) in “In Vitro, Fluorescent Assay Validation” section and the range of concentrations were for GAL (30 to 7.5 µM), FI (60 to 15 µM), RU and MO (200 to 50 µM), EGCG (142 a 17.7 µM).

[2] = system: promastigotes of L. (L.) donovani; set-up: method as in Kaur et al., 2010; details: GAL isolated from Alpinia galanga rhizomes ref Kaur et al., 2010; read-out: IC50 against promastigotes of L. (L.) donovani; cited from earlier work
[3] = system: intracellular amastigotes of L. amaz/tc3; test: Fluorescence assay in the macrophage-amastigote model (Raw 264.7 infected with L. amaz/tc3); assay type: cell-based, Leishmania (Leishmania) amazonensis
Procedure: as §1
The flavonoids anti-leishmanial activity was also evaluated against intracellular amastigotes. Macrophages (Raw 264.7) were plated in 96-well black plate (5 x 10^4 cell/well) and infected with promastigotes in stationary phase of L. amaz/tc3 (1:20 ratio) at 33°C, 5% CO2. After incubation, the infected macrophages were washed to remove non-internalized parasites with PBS plus P-S. New RPMI-1640 medium with different concentrations of GAL (30 to 3.75 µM), MO (300 to 37.5 µM), FI (65 to 8.12 µM), RU (300 to 37.5 µM) and EGCG (30 to 7.5 µM) was added to each well and incubated at 33°C, 5% CO2 for 48 h. Infected cells treated with Ma (136.6 to 34.1 µM) were the positive controls, and cells incubated only with RPMI-1640 were the negative control. The infected macrophages were incubated during 48 h at 33°C, 5% CO2. After treatment, the fluorescence of intracellular amastigotes of L. amaz/tc3 was measured in a plate reader (Tecan, Männedorf, Switzerland). The viability was determined as was described for MI (fluorescent assay). The selectivity index (SI) (CC50 for macrophages/IC50 for Leishmania) was calculated.

[4] = Cytotoxicity in macrophage cell line by the MTT method (colorimetric); assay type: cell-based; details: mouse, Raw 264.7 macrophage cell line; Raw 264.7, MTT, 48 h; read-out: Colorimetric CC50 μM (SE)
Procedure: The cytotoxicity against a cell line of macrophages (Raw 264.7) of GAL, MO, FI, RU, EGCG, PE, MI and MA was determined by the MTT method. Cells (3.3 x 10^5/ml) cells were treated with different concentrations of each compound during 48 h at 37°C, 5% CO2. The controls were incubated with RPMI-1640 medium. Briefly, 50 µl of MTT (2 mg/mL) was added to each well and, after 4 h of incubation at 37°C, 5% CO2, the reaction was stopped dissolving the formazan crystals with 100 µl/well of dimethyl sulfoxide. The relative amount of formazan produced by viable macrophages was determined using a spectrophotometer at 595 nm. The percentage of viable cells was calculated according to the formula (OD treated culture−OD blank)/(OD control−OD blank) ×100 as was described previously ([Adinehbeigi et al., 2017]). The cytotoxicity concentration 50% (CC50) was calculated for each compound.

[5] = system: Raw 264.7 macrophages infected with L. amaz/tc3; test: Cytokine production (IL-12p70, IL-10) by macrophages, ELISA of culture supernatant; assay type: cell-based; details: 20 µM, 48 h
Procedure: Then, the culture supernatant was recovered and maintained at -80°C until use. The culture supernatant concentrations of IL-12p70 and IL-10 (BD Biosciences, San Diego, USA) were determined by ELISA following the specifications of the supplier. Each condition was performed in quadruplicate.

Structure (SMILES): O=c1c(O)c(-c2ccccc2)oc2cc(O)cc(O)c12 [GAL, Galangin]
- SI (Selectivity index) ([1]; CC50 for macrophages/IC50 for Leishmania (intracellular amastigotes; Ma from fluorescence IC50)): 1.1
- IC50 ([1]; Leishmania amazonensis, RAW264.7, Raw 264.7 macrophages, 48 h, optic microscope, read-out: Microscopic IC50 μM (SE), intracellular amastigotes): 20.6 µM
- IC50 [2]: 100 µM
- Fluorescence Inhibition (%) of amastigotes ([3]; 15 µM, 48 h): 29%
- inhibition at 15 µM ([3]; Leishmania, RAW264.7, 48 h, read-out: Fluorescence Inhibition (%) of amastigotes, 15 µM, 48 h): 29 to 31%
- CC50 at 48 h [4]: 22.8 µM
- IL-10 concentration in culture supernatant ([5]; between treated groups): did not show significant differences
- IL-12 p70 in culture supernatant, mean (range) ([5]; infected macrophages, infected non-stimulated controls 72.11 pg/ml, p < 0.01): 232.2 pg/mL
